Like-named read-outs stand apart in the source and are kept apart here.
Key:
EGFR Del19/C797S = EGFR Del19/C797S (Homo sapiens, UniProt P00533, C797S/DEL746-750); test: Biochemical EGFR kinase inhibition assay (Lance Ultra TR-FRET), double mutant del19/C797S
Protocol: (§1) Biochemical EGFR kinase assays were conducted using Lance Ultra time-resolved fluorescence resonance energy transfer (TR-FRET) technology from Perkin-Elmer. Compounds of the invention were initially diluted to 20 mM in 100% DMSO for storage and made into kinase buffer solution to create a compound concentration ranging from 0.003 μM and 10 μM.
(§2) Each kinase reactions were incubated at room temperature for 1 hour and then stopped by the addition of 4 μL of stop solution (10 mM EDTA). The specific Europium-labeled-anti-phosphopeptide antibody (PerkinElmer, AD0069) diluted in LANCE detection buffer was then added to a final concentration of 2 nM. After 60 minutes incubation at room temperature the LANCE signal was measured on an EnVision Multilabel Reader (Perkin-Elmer). Excitation wavelength was set at 320 nm and emission monitored at 615 nm (donor) and 665 nm (acceptor). The IC50 values were determined using GraphPad prism software (GraphPad Software, Inc., San Diego, CA, USA).

EGFR L858R/T790M/C797S = EGFR L858R/T790M/C797S (Homo sapiens, UniProt P00533, C797S/L858R/T790M); test: Biochemical EGFR kinase inhibition assay (Lance Ultra TR-FRET), triple mutant L858R/T790M/C797S
Chain of EGFR L858R/T790M/C797S (P00533 25-1210 T790M/C797S/L858R): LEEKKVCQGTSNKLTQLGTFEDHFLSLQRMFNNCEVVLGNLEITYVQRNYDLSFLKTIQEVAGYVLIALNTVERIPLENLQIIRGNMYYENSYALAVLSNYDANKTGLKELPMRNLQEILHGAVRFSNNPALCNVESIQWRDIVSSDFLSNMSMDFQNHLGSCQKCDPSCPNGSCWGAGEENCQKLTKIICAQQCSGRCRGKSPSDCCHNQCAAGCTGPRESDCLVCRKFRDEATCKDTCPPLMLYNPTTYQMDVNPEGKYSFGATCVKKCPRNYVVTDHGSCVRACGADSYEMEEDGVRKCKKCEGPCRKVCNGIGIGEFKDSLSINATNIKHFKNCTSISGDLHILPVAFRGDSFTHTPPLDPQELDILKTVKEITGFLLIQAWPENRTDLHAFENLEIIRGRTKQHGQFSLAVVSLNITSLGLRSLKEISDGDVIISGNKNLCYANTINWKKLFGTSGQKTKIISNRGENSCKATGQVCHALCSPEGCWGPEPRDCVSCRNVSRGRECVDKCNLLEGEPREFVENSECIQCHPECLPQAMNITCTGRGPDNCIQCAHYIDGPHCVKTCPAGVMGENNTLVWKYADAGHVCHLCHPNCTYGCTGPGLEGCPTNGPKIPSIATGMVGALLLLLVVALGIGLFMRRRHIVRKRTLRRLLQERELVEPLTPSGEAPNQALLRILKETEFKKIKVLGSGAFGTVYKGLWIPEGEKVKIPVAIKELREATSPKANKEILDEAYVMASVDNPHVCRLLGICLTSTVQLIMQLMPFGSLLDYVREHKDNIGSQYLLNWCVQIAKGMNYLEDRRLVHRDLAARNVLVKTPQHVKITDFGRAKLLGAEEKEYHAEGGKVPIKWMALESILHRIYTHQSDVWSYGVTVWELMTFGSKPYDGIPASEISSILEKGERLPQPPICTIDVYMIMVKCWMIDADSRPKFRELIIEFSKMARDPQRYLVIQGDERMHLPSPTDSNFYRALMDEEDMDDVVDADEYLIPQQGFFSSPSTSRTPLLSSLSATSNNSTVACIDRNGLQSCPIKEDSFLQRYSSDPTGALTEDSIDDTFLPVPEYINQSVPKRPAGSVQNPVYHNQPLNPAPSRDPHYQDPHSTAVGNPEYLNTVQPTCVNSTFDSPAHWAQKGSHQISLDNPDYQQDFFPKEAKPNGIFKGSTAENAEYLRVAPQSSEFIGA
Protocol: as §1, §2

EGFR L858R/C797S = EGFR L858R/C797S (Homo sapiens, UniProt P00533, C797S/L858R); test: Biochemical EGFR kinase inhibition assay (Lance Ultra TR-FRET), double mutant L858R/C797S
Chain of EGFR L858R/C797S (P00533 25-1210 C797S/L858R): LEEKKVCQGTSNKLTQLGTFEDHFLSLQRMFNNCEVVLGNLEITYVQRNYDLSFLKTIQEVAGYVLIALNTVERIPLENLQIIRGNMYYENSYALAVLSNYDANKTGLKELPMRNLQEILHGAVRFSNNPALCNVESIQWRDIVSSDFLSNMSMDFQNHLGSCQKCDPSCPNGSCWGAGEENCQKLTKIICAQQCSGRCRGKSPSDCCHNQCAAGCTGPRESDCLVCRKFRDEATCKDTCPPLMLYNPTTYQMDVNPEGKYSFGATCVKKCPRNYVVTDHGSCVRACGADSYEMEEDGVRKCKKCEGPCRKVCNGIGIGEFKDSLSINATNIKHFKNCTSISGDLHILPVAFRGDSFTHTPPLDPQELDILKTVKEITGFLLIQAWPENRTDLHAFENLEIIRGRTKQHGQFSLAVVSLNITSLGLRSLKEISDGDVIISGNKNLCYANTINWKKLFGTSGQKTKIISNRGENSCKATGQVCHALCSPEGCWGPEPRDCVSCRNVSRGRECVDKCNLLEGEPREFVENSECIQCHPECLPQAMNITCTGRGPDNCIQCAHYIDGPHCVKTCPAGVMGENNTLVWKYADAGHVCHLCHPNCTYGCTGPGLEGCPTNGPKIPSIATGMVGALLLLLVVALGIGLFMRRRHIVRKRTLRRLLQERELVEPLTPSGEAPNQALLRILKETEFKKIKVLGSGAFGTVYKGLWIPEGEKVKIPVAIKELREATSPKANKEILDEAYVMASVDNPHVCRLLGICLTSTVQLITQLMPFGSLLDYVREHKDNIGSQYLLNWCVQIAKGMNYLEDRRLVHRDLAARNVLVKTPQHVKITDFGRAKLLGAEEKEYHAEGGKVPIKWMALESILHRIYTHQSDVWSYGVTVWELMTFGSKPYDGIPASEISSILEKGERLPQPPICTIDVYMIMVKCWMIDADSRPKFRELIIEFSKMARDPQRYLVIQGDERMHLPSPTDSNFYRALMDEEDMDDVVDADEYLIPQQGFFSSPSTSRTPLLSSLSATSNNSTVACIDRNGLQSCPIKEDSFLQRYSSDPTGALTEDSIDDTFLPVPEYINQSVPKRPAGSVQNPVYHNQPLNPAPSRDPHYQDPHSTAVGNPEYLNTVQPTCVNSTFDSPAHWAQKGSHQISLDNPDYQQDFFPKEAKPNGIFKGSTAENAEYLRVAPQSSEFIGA
Protocol: as §1, §2

EGFR wildtype (WT) = EGFR wildtype (WT) (Homo sapiens, UniProt P00533); test: Biochemical EGFR kinase inhibition assay (Lance Ultra TR-FRET), wildtype
Protocol: as §1, §2

EGFR Del19/T790M/C797S = EGFR Del19/T790M/C797S (Homo sapiens, UniProt P00533, C797S/DEL746-750/T790M); test: Biochemical EGFR kinase inhibition assay (Lance Ultra TR-FRET), triple mutant del19/T790M/C797S
Chain of EGFR Del19/T790M/C797S (P00533 with tags, fused parts or gaps DEL746-750/T790M/C797S): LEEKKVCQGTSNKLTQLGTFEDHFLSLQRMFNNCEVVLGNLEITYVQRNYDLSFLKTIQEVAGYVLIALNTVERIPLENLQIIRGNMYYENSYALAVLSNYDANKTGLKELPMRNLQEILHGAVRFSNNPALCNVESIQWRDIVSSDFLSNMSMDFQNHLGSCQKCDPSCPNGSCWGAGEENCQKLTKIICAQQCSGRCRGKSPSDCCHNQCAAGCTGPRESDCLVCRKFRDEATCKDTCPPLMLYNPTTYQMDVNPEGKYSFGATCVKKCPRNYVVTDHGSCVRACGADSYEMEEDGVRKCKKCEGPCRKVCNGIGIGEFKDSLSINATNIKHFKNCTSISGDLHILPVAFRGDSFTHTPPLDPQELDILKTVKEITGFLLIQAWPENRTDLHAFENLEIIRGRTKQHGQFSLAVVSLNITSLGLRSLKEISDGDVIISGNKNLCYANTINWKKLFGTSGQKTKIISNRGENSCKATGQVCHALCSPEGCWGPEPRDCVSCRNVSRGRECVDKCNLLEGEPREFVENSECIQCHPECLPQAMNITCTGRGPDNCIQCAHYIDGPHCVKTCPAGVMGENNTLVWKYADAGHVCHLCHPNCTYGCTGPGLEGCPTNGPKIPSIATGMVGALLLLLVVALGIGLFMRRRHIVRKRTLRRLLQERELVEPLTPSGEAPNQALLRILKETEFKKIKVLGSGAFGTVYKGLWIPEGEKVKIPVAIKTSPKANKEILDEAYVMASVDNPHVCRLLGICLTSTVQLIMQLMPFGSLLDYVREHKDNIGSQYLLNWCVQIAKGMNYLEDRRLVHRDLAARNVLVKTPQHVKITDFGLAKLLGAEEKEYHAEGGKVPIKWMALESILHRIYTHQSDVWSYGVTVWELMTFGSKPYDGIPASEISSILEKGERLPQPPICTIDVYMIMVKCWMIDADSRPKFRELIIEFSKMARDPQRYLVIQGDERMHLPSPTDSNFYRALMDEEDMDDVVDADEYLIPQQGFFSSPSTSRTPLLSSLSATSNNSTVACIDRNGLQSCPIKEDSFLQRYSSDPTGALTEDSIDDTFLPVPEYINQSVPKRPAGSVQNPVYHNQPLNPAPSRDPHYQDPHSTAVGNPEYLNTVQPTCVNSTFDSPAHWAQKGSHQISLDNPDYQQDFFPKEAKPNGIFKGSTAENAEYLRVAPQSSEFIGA
Protocol: as §1, §2

[1] = Km ATP, read-out: IC50 Del19/C797S (nM) Km ATP
[2] = Km ATP, read-out: IC50 L858R/T790M/C797S (nM) Km ATP
[3] = Km ATP, read-out: IC50 L858R/C797S (nM) Km ATP
[4] = Km ATP, read-out: IC50 WT (nM) Km ATP
[5] = Km ATP, read-out: IC50 Del19/T790M/C797S (nM) Km ATP
[6] = IC50 Del19/C797S (nM), 100 μM ATP
[7] = IC50 L858R/T790M/C797S (nM), 100 μM ATP
[8] = IC50 L858R/C797S (nM), 100 μM ATP
[9] = IC50 Del19/T790M/C797S (nM), 100 μM ATP
[10] = ATP at Km, read-out: IC50 Del19/C797S (nM), Km ATP
[11] = ATP at Km, read-out: IC50 Del19/T790M/C797S (nM), Km ATP
[12] = ATP at Km, read-out: IC50 WT (nM), Km ATP

Chain of EGFR Del19/C797S (P00533 with tags, fused parts or gaps DEL746-750/C797S): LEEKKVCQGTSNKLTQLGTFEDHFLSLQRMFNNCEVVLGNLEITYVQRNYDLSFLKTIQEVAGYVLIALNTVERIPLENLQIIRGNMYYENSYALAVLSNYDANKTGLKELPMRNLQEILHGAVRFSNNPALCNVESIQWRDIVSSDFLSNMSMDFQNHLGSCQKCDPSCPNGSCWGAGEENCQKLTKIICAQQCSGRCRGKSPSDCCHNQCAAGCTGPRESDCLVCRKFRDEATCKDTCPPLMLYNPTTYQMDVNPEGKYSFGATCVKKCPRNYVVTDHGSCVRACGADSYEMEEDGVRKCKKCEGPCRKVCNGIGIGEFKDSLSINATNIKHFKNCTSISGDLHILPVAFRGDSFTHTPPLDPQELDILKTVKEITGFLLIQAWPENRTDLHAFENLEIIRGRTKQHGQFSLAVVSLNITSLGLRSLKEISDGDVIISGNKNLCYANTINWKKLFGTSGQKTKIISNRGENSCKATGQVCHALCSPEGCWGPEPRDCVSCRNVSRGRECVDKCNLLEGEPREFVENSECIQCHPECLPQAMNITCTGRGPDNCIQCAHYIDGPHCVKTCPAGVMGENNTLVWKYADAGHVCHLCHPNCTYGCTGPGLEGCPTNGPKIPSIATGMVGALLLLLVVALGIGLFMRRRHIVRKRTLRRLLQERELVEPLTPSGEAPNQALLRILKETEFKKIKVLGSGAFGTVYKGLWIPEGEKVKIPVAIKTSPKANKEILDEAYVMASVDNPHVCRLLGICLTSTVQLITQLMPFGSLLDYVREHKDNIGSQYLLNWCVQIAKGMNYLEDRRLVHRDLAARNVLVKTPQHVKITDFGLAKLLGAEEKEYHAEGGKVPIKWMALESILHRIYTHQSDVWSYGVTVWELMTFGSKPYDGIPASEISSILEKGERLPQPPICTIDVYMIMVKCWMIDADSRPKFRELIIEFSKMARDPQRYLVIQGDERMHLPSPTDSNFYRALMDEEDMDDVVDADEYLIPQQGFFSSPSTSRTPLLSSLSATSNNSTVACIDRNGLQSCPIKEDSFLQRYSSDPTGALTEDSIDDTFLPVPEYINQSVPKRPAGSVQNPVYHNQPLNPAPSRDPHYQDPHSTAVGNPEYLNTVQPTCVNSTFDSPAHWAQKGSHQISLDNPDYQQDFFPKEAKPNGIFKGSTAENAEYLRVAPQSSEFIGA

Compound | IC50 (EGFR Del19/C797S; [1]) [nM] | IC50 (EGFR L858R/T790M/C797S; [2]) [nM] | IC50 (EGFR wildtype (WT); [4]) [nM] | IC50 (EGFR Del19/T790M/C797S; [5]) [nM] | IC50 (EGFR Del19/C797S; [6]) [nM] | IC50 (EGFR wildtype (WT); IC50 WT (nM), 100 μM ATP) [nM] | IC50 (EGFR Del19/T790M/C797S; [9]) [nM] | also measured
CN1CCN(c2cc(Nc3ccnc(-c4cnn(S(=O)(=O)C5CC5)c4)n3)ncc2C#Cc2cnn(C)c2)CC1 [Example 1, 2-(1-(Cyclopropylsulfonyl)-1H-pyrazol-4-yl)-N-(5-((1-methyl-1H-pyrazol-4-yl)ethynyl)-4-(4-methylpiperazin-1-yl)pyridin-2-yl)pyrimidin-4-amine] | 71.3 | 5.4 | 230 | 1.3 | – | – | – | IC50 (EGFR L858R/C797S; [3]): 34.6 nM
Cn1cc(C#Cc2cnc(Nc3ccnc(-c4cnn(S(=O)(=O)C5CC5)c4)n3)cc2NC2CCCCC2)cn1 [Example 2, N^4-Cyclohexyl-N^2-(2-(1-(cyclopropylsulfonyl)-1H-pyrazol-4-yl)pyrimidin-4-yl)-5-((1-methyl-1H-pyrazol-4-yl)ethynyl)pyridine-2,4-diamine] | 112 | 11.2 | 881 | 5.7 | – | – | – | IC50 (EGFR L858R/C797S; [3]): 143 nM
C[C@H](CCO)Nc1cc(Nc2ccnc(-c3cnn(S(=O)(=O)C4CC4)c3)n2)ncc1C#Cc1cnn(C)c1 [Example 4, (R)-3-((2-((2-(1-(Cyclopropylsulfonyl)-1H-pyrazol-4-yl)pyrimidin-4-yl)amino)-5-((1-methyl-1H-pyrazol-4-yl)ethynyl)pyridin-4-yl)amino)butan-1-ol] | – | – | – | – | 38.6 | > 10000 | 1.1 | IC50 (EGFR L858R/T790M/C797S; [7]): 12.6 nM; IC50 (EGFR L858R/C797S; [8]): 103 nM
C[C@H](Nc1cc(Nc2ccnc(-c3cnn(S(=O)(=O)C4CC4)c3)n2)ncc1C#Cc1cnn(C)c1)C(C)(C)O [Example 5, (S)-3-((2-((2-(1-(Cyclopropylsulfonyl)-1H-pyrazol-4-yl)pyrimidin-4-yl)amino)-5-((1-methyl-1H-pyrazol-4-yl)ethynyl)pyridin-4-yl)amino)-2-methylbutan-2-ol] | – | – | – | – | 404 | > 10000 | 3.8 | IC50 (EGFR L858R/T790M/C797S; [7]): 44.3 nM; IC50 (EGFR L858R/C797S; [8]): 418 nM
CC(C)Oc1cc(Nc2ccnc(-c3cnn(S(=O)(=O)C4CC4)c3)n2)ncc1C#Cc1cnn(C)c1 [Example 54, 2-(1-(Cyclopropylsulfonyl)-1H-pyrazol-4-yl)-N-(4-isopropoxy-5-((1-methyl-1H-pyrazol-4-yl)ethynyl)pyridin-2-yl)pyrimidin-4-amine] | 138 | 13.2 | 2580 | 6.1 | – | – | – | –
CC(C)Oc1cc(Nc2ccnc(-c3cnn(S(=O)(=O)C4CC4)c3)n2)ncc1C#Cc1cnn(CCF)c1 [Example 55, 2-(1-(Cyclopropylsulfonyl)-1H-pyrazol-4-yl)-N-(5-((1-(2-fluoroethyl)-1H-pyrazol-4-yl)ethynyl)-4-isopropoxypyridin-2-yl)pyrimidin-4-amine] | 398 | 19.1 | 2630 | 7 | – | – | – | –
CCC(C)Oc1cc(Nc2ccnc(-c3cnn(S(=O)(=O)C4CC4)c3)n2)ncc1C#Cc1cnn(C)c1 (stereo not drawn) [Example 56, N-(4-(sec-Butoxy)-5-((1-methyl-1H-pyrazol-4-yl)ethynyl)pyridin-2-yl)-2-(1-(cyclopropylsulfonyl)-1H-pyrazol-4-yl)pyrimidin-4-amine] | 291 | 24.2 | > 10000 | 7.6 | – | – | – | –
Cc1nc(C#Cc2cnc(Nc3ccnc(-c4cnn(S(=O)(=O)C5CC5)c4)n3)cc2NC(C)C)cs1 [Example 199, N^2-(2-(1-(Cyclopropylsulfonyl)-1H-pyrazol-4-yl)pyrimidin-4-yl)-N^4-isopropyl-5-((2-methylthiazol-4-yl)ethynyl)pyridine-2,4-diamine] | – | – | – | – | – | – | – | IC50 (EGFR Del19/C797S; [10]): 82 nM; IC50 (EGFR L858R/T790M/C797S; ATP at Km, read-out: IC50 L858R/T790M/C797S (nM), Km ATP): 3.4 nM; IC50 (EGFR L858R/C797S; ATP at Km, read-out: IC50 L858R/C797S (nM), Km ATP): 414 nM; IC50 (EGFR Del19/T790M/C797S; [11]): 5.7 nM
CC(C)Nc1cc(Nc2ccnc(-c3cnn(S(=O)(=O)C4CC4)c3)n2)ncc1C#Cc1csc(CF)n1 [Example 200, N^2-(2-(1-(cyclopropylsulfonyl)-1H-pyrazol-4-yl)pyrimidin-4-yl)-5-((2-(fluoromethyl)thiazol-4-yl)ethynyl)-N^4-isopropylpyridine-2,4-diamine] | – | – | – | – | 1000 | > 10000 | 11.3 | IC50 (EGFR Del19/C797S; [10]): 350 nM; IC50 (EGFR L858R/T790M/C797S; [7]): 29.8 nM; IC50 (EGFR wildtype (WT); [12]): 4100 nM; IC50 (EGFR Del19/T790M/C797S; [11]): 12.6 nM
CC(C)Nc1cc(Nc2ccnc(-c3cnn(S(=O)(=O)C4CC4)c3)n2)ncc1C#CCCCNC(=O)N1CCOCC1 [Example 207, N-(5-(6-((2-(1-(Cyclopropylsulfonyl)-1H-pyrazol-4-yl)pyrimidin-4-yl)amino)-4-(isopropylamino)pyridin-3-yl)pent-4-yn-1-yl)morpholine-4-carboxamide] | – | – | – | – | 76.4 | > 10000 | 2.9 | IC50 (EGFR Del19/C797S; [10]): 29.1 nM; IC50 (EGFR L858R/C797S; [8]): 120 nM; IC50 (EGFR wildtype (WT); [12]): 56 nM; IC50 (EGFR Del19/T790M/C797S; [11]): 2.1 nM
CC(C)Nc1cc(Nc2ccnc(-c3cnn(S(=O)(=O)C4CC4)c3)n2)ncc1C#CCCCC(=O)N1CCOCC1 [Example 208, 6-(6-((2-(1-(Cyclopropylsulfonyl)-1H-pyrazol-4-yl)pyrimidin-4-yl)amino)-4-(isopropylamino)pyridin-3-yl)-1-morpholinohex-5-yn-1-one] | – | – | – | – | 120 | > 10000 | 3.5 | IC50 (EGFR Del19/C797S; [10]): 56 nM; IC50 (EGFR L858R/T790M/C797S; [7]): 8.1 nM; IC50 (EGFR wildtype (WT); [12]): 107 nM; IC50 (EGFR Del19/T790M/C797S; [11]): 5.1 nM
CC(C)Nc1cc(Nc2ccnc(-c3cnn(S(=O)(=O)C4CC4)c3)n2)ncc1C#CCCCCC(=O)N1CCOCC1 [Example 210, 7-(6-((2-(1-(Cyclopropylsulfonyl)-1H-pyrazol-4-yl)pyrimidin-4-yl)amino)-4-(isopropylamino)pyridin-3-yl)-1-morpholinohept-6-yn-1-one] | – | – | – | – | 143 | > 10000 | 3.4 | IC50 (EGFR L858R/C797S; [8]): 157 nM
Cc1nc(C#Cc2cnc(Nc3ccnc(-c4cnn(S(=O)(=O)C5CC5)c4)n3)cc2N[C@H]2CC[C@H](O)C2)cs1 [Example 222, (1 S,3S)-3-((2-((2-(1-(Cyclopropylsulfonyl)-1H-pyrazol-4-yl)pyrimidin-4-yl)amino)-5-((2-methylthiazol-4-yl)ethynyl)pyridin-4-yl)amino)cyclopentan-1-ol] | – | – | – | – | 197 | > 10000 | 5.2 | IC50 (EGFR L858R/T790M/C797S; [7]): 12.2 nM
Cn1cc(C#Cc2cnc(Nc3ccnc(-c4cnn(S(=O)(=O)C5CC5)c4)n3)cc2-c2cnn(C)c2)cn1 [Example 233, 2-(1-(Cyclopropylsulfonyl)-1H-pyrazol-4-yl)-N-(4-(1-methyl-1H-pyrazol-4-yl)-5-((1-methyl-1H-pyrazol-4-yl)ethynyl)pyridin-2-yl)pyrimidin-4-amine] | 299 | 15.5 | 1340 | 4.5 | – | – | – | –
Cn1cc(-c2cc(Nc3ccnc(-c4cnn(S(=O)(=O)C5CC5)c4)n3)ncc2C#Cc2cnn(CCF)c2)cn1 [Example 234, 2-(1-(Cyclopropylsulfonyl)-1H-pyrazol-4-yl)-N-(5-((1-(2-fluoroethyl)-1H-pyrazol-4-yl)ethynyl)-4-(1-methyl-1H-pyrazol-4-yl)pyridin-2-yl)pyrimidin-4-amine] | 214 | 16.1 | 1010 | 4.1 | – | – | – | –
Cn1cc(C#Cc2cnc(Nc3ccnc(-c4cnn(S(=O)(=O)C5CC5)c4)n3)cc2-c2cnn(C3CC3)c2)cn1 [Example 235, N-(4-(1-Cyclopropyl-1H-pyrazol-4-yl)-5-((1-methyl-1H-pyrazol-4-yl)ethynyl)pyridin-2-yl)-2-(1-(cyclopropylsulfonyl)-1H-pyrazol-4-yl)pyrimidin-4-amine] | 311 | 13.2 | 2220 | 4.7 | – | – | – | –
O=S(=O)(C1CC1)n1cc(-c2nccc(Nc3cc(-c4cnn(C5CC5)c4)c(C#Cc4cnn(CCF)c4)cn3)n2)cn1 [Example 237, N-(4-(1-Cyclopropyl-1H-pyrazol-4-yl)-5-((1-(2-fluoroethyl)-1H-pyrazol-4-yl)ethynyl)pyridin-2-yl)-2-(1-(cyclopropylsulfonyl)-1H-pyrazol-4-yl)pyrimidin-4-amine] | 232 | 16.5 | 2720 | 5.5 | – | – | – | –
